Experimental data published in PubChem BioAssay AID1850 (Southern Research Specialized Biocontainment Screening …, 2009).
pIC50: −log10 of the molar value.

These compounds were tested on Salmonella Typhi PhoP-promoter GFP reporter, fluorescence, 4 h (assay: PhoP regulon inhibitors, Salmonella typhi PhoP promoter GFP reporter, confirmatory (AID 1850)).
In the case of C(=N\Nc1ccccn1)/c1cccnc1, the pIC50 was 4.47.
O=C(CNCCC1=CCCCC1)Nc1ccc(N2CCCCCC2)cc1 showed a pIC50 of 4.53.
With CCCCCc1ccc(OCCCC[n+]2ccccc2)c(CCCCC)c1 the pIC50 was 4.45.
In the case of CC(Nc1nc(N2CCCCC2)nc2ccccc12)c1ccccc1 (stereo unspecified), the pIC50 was 4.41.
For CCCNC1=C(C)C(=O)C2=C(C1=O)C(COC(N)=O)[C@]1(OC)C3NC3CN21 (stereo partly specified), the pIC50 was 4.80.
For CCCCCCCCCCn1c2c(c(=N)c3c1CCC3)CCC2, the pIC50 was 4.83.
CCc1cccc2c1Sc1ccccc1CC2N1CCNCC1 (stereo unspecified) gave a pIC50 of 4.29.
O=C(C[n+]1cc(-c2ccc(Cl)c(Cl)c2)n2c1CCC2)N1c2ccccc2Sc2ccccc21 gave a pIC50 of 4.57.
In the case of CCCCOCCCNc1ncnc2c1[nH]c1ccccc12, the pIC50 was 4.15.
O=C(Nc1cccc(N=Cc2cc(Cl)cc(Br)c2O)c1)c1ccco1 was tested, and the pIC50 was 4.01.
Compound OC(CNCCc1ccc(C(F)(F)F)cc1)COC(c1ccccc1)c1ccccc1 (stereo unspecified) has a pIC50 of 4.59.
Compound Oc1cc(Cl)ccc1Oc1ccc(Cl)cc1Cl has a pIC50 of 6.17.
With Cc1cccc(Nc2nc(NCc3ccco3)c3ccccc3n2)c1 the pIC50 was 5.31.
CN1CCN(c2c(F)cc3c(=O)c(C(=O)O)cn4c3c2OCN4C)CC1 was tested, and the pIC50 was greater than 6.64.
CN1CCN(C(c2ccc(Cl)cc2)c2cc(Cl)c3cccnc3c2O)CC1 (stereo unspecified) showed a pIC50 of 4.71.
For Cc1cc(C)n(-c2nc(NCCN(C)C)c3c4c(sc3n2)CCCC4)n1, the pIC50 was 4.34.
CC1CCc2cc(F)cc3c(=O)c(C(=O)O)cn1c23 (stereo unspecified) gave a pIC50 of 5.21.
With O=C(Nc1nnc(-c2ccccn2)o1)c1cccc(Cl)c1 the pIC50 was 3.94.
Compound COc1ccc(C(=O)NNC(=S)NC(=O)c2ccccc2)cc1 has a pIC50 of 4.00.
CCN(CC)CCn1c(=N)n(CC(O)COc2cccc(C)c2)c2ccccc21 (stereo unspecified) showed a pIC50 of 3.87.
O=C(c1cccs1)c1no[n+]([O-])c1C(=O)c1cccs1 showed a pIC50 of 4.55.
Work on O=C(C[n+]1cc(-c2ccc(Cl)cc2)n2c1CCC2)N1c2ccccc2Sc2ccccc21 yielded a pIC50 of 4.09.
Work on CC(C)(C)c1ccc(NC(=O)COC(=O)c2ccc([N+](=O)[O-])s2)cc1 yielded a pIC50 of 4.66.
Work on Cc1ccc(-c2[nH]ncc2/C=N/n2c(C)nc3ccccc3c2=O)cc1 yielded a pIC50 of 3.83.
COc1c(N2CCN(C(=S)NC3CC4CCC3C4)C(C)C2)c(F)cc2c(=O)c(C(=O)O)cn(C3CC3)c12 (stereo unspecified) showed a pIC50 of 5.18.
Work on Cc1ccc(C(=O)N/C(=C\c2ccc(-c3ccc(Cl)cc3)o2)C(=O)NCCCN(C)C)cc1 yielded a pIC50 of 4.42.
Compound CN(C)CCCNc1cc(C(C)(C)C)nc2c(-c3ccccc3)cnn12 has a pIC50 of 4.50.
Compound COc1ccc(Nc2c3ccccc3nc3ccccc23)cc1 has a pIC50 of 4.45.
In the case of OCCNc1nc(Nc2ccccc2)nc2ccccc12, the pIC50 was 4.99.
CS(=O)(=O)c1ccc([C@@H](O)[C@@H](CO)NC(=O)C(Cl)Cl)cc1 showed a pIC50 of 4.48.
C#CCOCCOCCOCCNc1nc(N2CCN(C(=O)CCCCCCCCCCNC(=O)Cn3cc(C[C@@H](C)O)nn3)CC2)nc(N2CCN(C(=O)CCCCCCCCCCNC(=O)[C@@H]([C@H](C)CC)n3cc(CCCCCN)nn3)CC2)n1 showed a pIC50 of 3.85.
Fc1ccc(Nc2nnc(C(F)(F)F)s2)cc1Cl gave a pIC50 of 4.43.
CCCCCCCCCCOC(=O)C[N+](C)(C)CC1CCCCC1O (stereo unspecified) showed a pIC50 of 4.46.
In the case of CCn1cc(C(=O)O)c(=O)c2cc(F)c(N3CCN(C(=O)Nc4ccccc4)CC3)cc21, the pIC50 was 4.63.
For CCn1cc(C(=O)NCCN(C)C)c(=O)c2cc(F)c(N3CCN(C)CC3)cc21, the pIC50 was 4.63.
With O=C1c2cccc3cccc(c23)C(=O)C1(O)O the pIC50 was 4.32.
Compound COc1ccc(CNCCC(c2ccccc2)c2ccc3c(c2)OCO3)cc1 (stereo unspecified) has a pIC50 of 4.10.
For Cc1ccc2sc(N(CCCN(C)C)C(=O)c3ccc(Br)s3)nc2c1C, the pIC50 was 4.43.
O=C(CSc1ccccn1)N/N=C/c1c[nH]c2ccccc12 showed a pIC50 of 3.93.
In the case of Nc1ncncc1-c1ccc([N+](=O)[O-])cc1, the pIC50 was 4.10.
In the case of CCCCCNC(=O)c1cn(CC)c2cc(N3CCN(C)CC3)c(F)cc2c1=O, the pIC50 was 4.01.
With CN1CCN(c2nc(Nc3ccc(F)cc3)nc(Nc3ccc(F)cc3)n2)CC1 the pIC50 was 4.09.
In the case of Cc1ccc(C(c2cc(Cl)c3cccnc3c2O)N2CCN(C)CC2)cc1 (stereo unspecified), the pIC50 was 4.43.
Work on C#CCOCCOCCOCCNc1nc(N2CCN(C(=O)[C@H](Cc3cc4ccccc4[nH]3)n3cc([C@@H](N)CC(C)C)nn3)CC2)nc(N2CCN(C(=O)[C@H](Cc3cc4ccccc4[nH]3)n3cc([C@@H](N)CC(C)C)nn3)CC2)n1 yielded a pIC50 of 4.40.
With CC(C)(C)CC(C)(C)c1ccc(OCCOCC[N+](C)(C)Cc2ccccc2)cc1 the pIC50 was 4.69.
For N=c1c2c(n(Cc3ccc(Cl)cc3Cl)c3c1CCC3)CCCC2, the pIC50 was 4.37.
In the case of Nc1c(Cl)ncnc1N/N=C/c1ccccn1, the pIC50 was 4.47.
In the case of Cc1cc(O)c2c(c1)C(=O)C13C(=C2O)C(=O)[C@H]2[C@@H](O)[C@@H]1[C@H]1[C@H](O)[C@@H]3C(=O)C3=C(O)c4c(O)cc(C)cc4C(=O)C312 (stereo partly specified), the pIC50 was 5.29.
CCn1cc(C(=O)O)c(=O)c2ccc(C)nc21 showed a pIC50 of 4.22.
CCCCCCCCCCCCCCCC[N+](C)(C)CCN(Cc1ccc(OC)cc1)c1ncccn1 showed a pIC50 of 4.71.
For Cc1cc([N+](=O)[O-])cc(/C=N\NC(=O)C2COc3ccccc3O2)c1O (stereo unspecified), the pIC50 was 4.29.
Work on N=c1n(Cc2ccc(Cl)cc2)c2ccccc2n1CC(O)COc1ccccc1 (stereo unspecified) yielded a pIC50 of 4.26.
For c1ccc(Sc2cccc3ccccc23)c(CNC2=NCCN2)c1, the pIC50 was 4.17.
CC1(C)N=C(N)N=C(N)N1c1ccc(Oc2ccc(Cl)cc2)c(Cl)c1 showed a pIC50 of 4.47.
CCCCCCCCCCCCCCCC[N+](C)(C)C showed a pIC50 of 4.62.
Cc1cc(N2CCC(C)CC2)nc(NCc2ccccc2)n1 gave a pIC50 of 4.40.
Nc1nc(Nc2cccc(F)c2)nc2ccccc12 gave a pIC50 of 4.64.
O=C(N/N=C/c1cc(O)ccc1Br)c1cccnc1 showed a pIC50 of 4.41.
CN(C)CCCNC(=O)c1ccc(-c2nc(-c3ccc(Cl)cc3)cs2)cc1 gave a pIC50 of 4.68.
Work on CCn1cc(C(=O)NCCO)c(=O)c2cc(F)c(N3CCN(C)CC3)cc21 yielded a pIC50 of 5.03.
O=[N+]([O-])c1cc(O)c2ncccc2c1 showed a pIC50 of 4.85.
Compound O=c1c2ccccc2nc(N/N=C/c2c(O)ccc3ccccc23)n1O has a pIC50 of 4.60.
CCN(CCNCC(O)COc1ccccc1C(C)C)c1cccc(C)c1 (stereo unspecified) gave a pIC50 of 4.49.
CCC(=O)N1CCN(c2cc3c(cc2F)c(=O)c(C(=O)O)cn3CC)CC1 gave a pIC50 of 4.28.
Clc1cccc(CN2CCc3c([nH]c4ccccc34)C2)c1Cl was tested, and the pIC50 was 4.12.
Cc1cccc(NC2=NC3(CCCCC3)N=C(N)N2)c1 showed a pIC50 of 4.43.
Work on O=C(/C=C/c1cccs1)NC(=S)NNC(=O)c1ccccc1O yielded a pIC50 of 4.45.
CN1CCCN(C(c2ccccc2)c2ccc(Cl)cc2)CC1 (stereo unspecified) gave a pIC50 of 4.06.
Compound COc1ccc(NC(=O)c2cc(Br)c(Br)s2)cn1 has a pIC50 of 4.99.
CC(=O)NC(=S)NNC(=O)c1ccc(Br)cc1 showed a pIC50 of 4.46.
For Oc1ccc(COCc2ccccc2)c2cccnc12, the pIC50 was 4.43.
Cc1ccc2nc(/C(C#N)=C\c3ccc([N+](=O)[O-])o3)[nH]c2c1 showed a pIC50 of 4.00.
In the case of Cc1c(N=Cc2cc(Br)cc(Br)c2O)cccc1C(=O)O, the pIC50 was 4.39.
CCOC(=O)Cn1c(=N)n(CCOc2ccc3ccccc3c2)c2ccccc21 showed a pIC50 of 4.27.
COc1cc([N+](=O)[O-])cc(/C=N/NC(=O)C(O)(c2ccccc2)c2ccccc2)c1O gave a pIC50 of 3.97.
O=C(NNc1nc2ccc(F)cc2s1)c1cccc(F)c1 showed a pIC50 of 4.11.
For N=c1c2c(n(Cc3ccc(Cl)c(Cl)c3)c3c1CCC3)CCCC2, the pIC50 was 4.43.
C#CCOCCOCCOCCNc1nc(N2CCN(C(=O)CCCCCCCCCCNC(=O)[C@H]([C@@H](C)CC)n3cc(CCCCCN)nn3)CC2)nc(N2CCN(C(=O)CCCCCCCCCCNC(=O)[C@H]([C@@H](C)CC)n3cc(CCCCN=C(N)N)nn3)CC2)n1 showed a pIC50 of 4.70.
OCCCCNCc1ccc(OCc2ccc(Cl)cc2Cl)cc1 showed a pIC50 of 4.11.
With CN1CC(C(=O)c2ccc(Cl)cc2)C(c2ccc(Cl)cc2Cl)C1 (stereo unspecified) the pIC50 was 4.43.
For COc1cc(C(=O)O/N=C2\C=CC(=O)C(C)=C2)cc(OC)c1OC, the pIC50 was 3.92.
Compound CC[C@@H](C)[C@H](CN[C@H](CNC)C(C)C)NC[C@@H](C)c1ccc(CC(C)C)cc1 has a pIC50 of 4.13.
Compound N=c1c2c(n(Cc3ccc(Cl)cc3)c3c1CCC3)CCC2 has a pIC50 of 4.10.
In the case of Cc1ccc(C(=O)O)cc1N=Cc1cc(Br)cc(Br)c1O, the pIC50 was 4.56.
CN(C)CCNc1oc(COc2ccc(-c3ccccc3)cc2)nc1C#N gave a pIC50 of 4.23.
For O=C(N/N=C/c1ccccn1)c1ccc(Br)o1, the pIC50 was 4.22.
Compound CN(C)CCCNc1c2ccccc2nc2ccccc12 has a pIC50 of 4.46.
Work on Fc1ccc([C@@H]2CCNC[C@H]2COc2ccc3c(c2)OCO3)cc1 yielded a pIC50 of 4.37.
In the case of CC(=O)Nc1cccc(NC(=O)Nc2ccc(F)cc2F)c1, the pIC50 was 4.39.
Cc1nc(N)c(Cc2ccc(Cl)cc2Cl)c(N)n1 gave a pIC50 of 4.35.
For Oc1c(CN2CCN(c3ccccn3)CC2)cc(Cl)c2cccnc12, the pIC50 was 4.53.
Compound CN(C)c1ccc2nc3ccc(=[N+](C)C)cc-3sc2c1 has a pIC50 of 4.74.
In the case of Cc1cc(NC(=O)c2ccccc2)sc1C, the pIC50 was 4.21.
In the case of C=CCn1c(NS(=O)(=O)c2ccccc2)c(S(=O)(=O)c2ccc(C)cc2)c2nc3ccccc3nc21, the pIC50 was 4.30.
With Clc1cc(Br)ccc1OCCCNCc1ccccc1 the pIC50 was 4.44.
Cc1cccc2sc(N(CCCN(C)C)C(=O)COc3ccc(Cl)cc3)nc12 gave a pIC50 of 4.41.
Compound CCn1cc(C(=O)O)c(=O)c2cc(F)c(N3CCN(C(=S)NC(=O)c4ccc(Br)cc4)CC3)cc21 has a pIC50 of 4.90.
With N=c1c2c(n(Cc3cccc(Cl)c3)c3c1CCC3)CCCC2 the pIC50 was 4.19.
For CN1C(=O)NC(c2ccc(O)cc2)C(C(=O)c2cccs2)C1(O)C(F)(F)F (stereo unspecified), the pIC50 was 4.42.
O=C(CCC(=O)Nc1ccc(Cl)cc1Cl)N/N=C/c1ccc([N+](=O)[O-])o1 was tested, and the pIC50 was 4.63.
O=C(N/N=C/c1cc(Cl)cc(Cl)c1O)c1ccncc1 gave a pIC50 of 4.45.
O=C(N/N=C/c1sc2ccccc2c1O)c1cccc2ccccc12 was tested, and the pIC50 was 4.15.
Compound CC1=NN(c2nc3ccccc3[nH]2)C(=O)C1Cc1ccccc1 (stereo unspecified) has a pIC50 of 4.30.
CCn1cc(C(=O)O)c(=O)c2cc(F)c(N3CCN(S(=O)(=O)c4ccc(NC(C)=O)cc4)CC3)cc21 showed a pIC50 of 3.99.
Compound Cc1cc(Cl)c(OCCCNCc2ccccc2)c(Br)c1 has a pIC50 of 4.16.
Work on Cc1ccc(C(=O)NNC(=S)NC(=O)c2ccccc2)cc1 yielded a pIC50 of 4.20.
CC1CCC(C(C)C)C(OC(=O)Cn2c(-c3ccc(Cl)cc3)[n+](C)c3ccccc32)C1 (stereo unspecified) gave a pIC50 of 4.30.
With Cc1ccc(OCC(=O)N/N=C\c2c(C)[nH]n(-c3ccccc3)c2=O)c([N+](=O)[O-])c1 the pIC50 was 4.18.
Compound Nc1nc(F)nc2c1ncn2[C@@H]1O[C@H](CO)[C@@H](O)[C@H]1O has a pIC50 of 4.48.
Compound O=C(N/N=C/c1cc([N+](=O)[O-])ccc1O)c1cccc2cc[nH]c12 has a pIC50 of 4.44.
O=C(N/N=C\c1ccc(Cl)s1)c1cccs1 showed a pIC50 of 4.10.
